pKd: −log10 of the molar value. Like-named read-outs stand apart in the source and are kept apart here.
What was measured:
calmodulin [1] = conditions: amino- and carboxy-terminal deletion peptides; ref [38]; cited from earlier work
[2] = biological target: calcium-saturated calmodulin (CaM·4Ca^2+) (Sus scrofa, UniProt F2Z5G3)
calmodulin [3] = conditions: read-out: dissociation constant; 4°C, pH 7.0; equilibrium dialysis; ref [35]; cited from earlier work
[4] = biological target: calcium-saturated calmodulin (CaM·4Ca^2+) (Homo sapiens, UniProt P0DP23)
calmodulin [5] = conditions: read-out: dissociation constant; 25°C, pH 7.3; fluorescence of dansylcalmodulin; ref [33]; cited from earlier work
[6] = biological target: Porcine calmodulin saturated with calcium (CaM·4Ca2+) (porcine); experiment: HDX-MS
[7] = biological target: Porcine calmodulin saturated with calcium (CaM·4Ca2+) (porcine); experiment: HDX-MS; remark: listed apart in the source
[8] = from ΔD1, corrected for 50% D2O

β-endorphin, sequence (P01189 237-267): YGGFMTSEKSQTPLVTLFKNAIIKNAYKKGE

Row | Ka [6] [M⁻¹] | pKd [6] | Ka [7] [M⁻¹] | pKd [7] | Compound | domain responsible for inhibition of calmodulin function (calmodulin [1]) | ΔD1 (difference in deuterium uptake between bound and unbound peptide) ([2]; dPLIMSTEX, peptide mass readout, 50% D2O) | backbone amides of the peptide protected upon binding to CaM·4Ca^2+ [2, 8] | pKd (calmodulin [3]) | backbone amide protons of CaM·4Ca^2+ that become protected on binding [4, 8] | ΔD1 (difference in deuterium uptake of the protein on binding) ([4]; traditional PLIMSTEX, protein mass readout, 50% D2O) | pKd (calmodulin [5])
1 | – | – | – | – | CC[C@H](C)[C@H](NC(=O)[C@H](C)NC(=O)[C@H](CC(N)=O)NC(=O)[C@H](CCCCN)NC(=O)[C@H](Cc1ccccc1)NC(=O)[C@H](CC(C)C)NC(=O)[C@@H](NC(=O)[C@@H](NC(=O)[C@H](CC(C)C)NC(=O)[C@@H]1CCCN1C(=O)[C@@H](NC(=O)[C@H](CCC(N)=O)NC(=O)[C@H](CO)NC(=O)[C@H](CCCCN)NC(=O)[C@H](CCC(=O)O)NC(=O)[C@H](CO)NC(=O)[C@@H](NC(=O)[C@H](CCSC)NC(=O)[C@H](Cc1ccccc1)NC(=O)CNC(=O)CNC(=O)[C@@H](N)Cc1ccc(O)cc1)[C@@H](C)O)[C@@H](C)O)C(C)C)[C@@H](C)O)C(=O)N[C@H](C(=O)N[C@@H](CCCCN)C(=O)N[C@@H](CC(N)=O)C(=O)N[C@@H](C)C(=O)N[C@@H](Cc1ccc(O)cc1)C(=O)N[C@@H](CCCCN)C(=O)N[C@@H](CCCCN)C(=O)NCC(=O)N[C@@H](CCC(=O)O)C(=O)O)[C@@H](C)CC [β-endorphin] | residues 14–25 | 3.96 ± 0.09 | at least eight | 5.34 to 5.60 | approximately 30 | 15.0 | 5.42 to 5.72
2 | 205000 | 5.31 | 220000 | 5.35 | β-endorphin (from UniProt P01189 237-267) (peptide) | – | – | – | – | – | – | –

— PMC2932787 (Journal of the American Society for Mass Spectrometry, 2010)
